{
  "source": "paper PMC7108851",
  "about": "(Journal of Virology, 2020)",
  "key": {"[1]": {"system": "simian immunodeficiency virus (SIV)", "conditions": "cited from earlier work"}, "[2]": {"conditions": "cited from earlier work"}, "[3]": {"system": "Y181V", "parameters": "method as in earlier work", "conditions": "cited from earlier work"}, "[4]": {"system": "Y181I HIV-1NL4-BAL", "test": "Drug susceptibility assay in TZM-bl cells", "type": "cell-based", "conditions": "Fig. 1A"}, "[5]": {"system": "HIV-1", "conditions": "cited from earlier work"}, "[6]": {"system": "E138K", "test": "RPV resistance of RT mutant (data not shown)", "type": "cell-based, HIV-1"}, "[7]": {"conditions": "even at a high dose; cited from earlier work"}, "[8]": {"system": "Y181C", "parameters": "method as in PMID 19933797", "conditions": "cited from earlier work"}, "[9]": {"system": "WT HIV-1CH185", "test": "Drug susceptibility assay in TZM-bl cells", "type": "cell-based", "conditions": "Human immunodeficiency virus 1, Fig. 9B", "procedure": "(§1) WT, Y181C, and Y181V HIV-1 stocks were phenotyped for resistance to RPV or RPV LA as previously described ([68]). Briefly, TZM-bl cells ([84]) were seeded at 5 × 10^3 cells in 96-well cell culture-treated, white-walled plates (PerkinElmer) in phenol red-free Dulbecco’s modified Eagle’s medium (DMEM; Life Technologies) supplemented with 10% fetal bovine serum (FBS; Atlanta Biologicals) and 100 U/ml penicillin, 100 μg/ml streptomycin, and 0.292 mg/ml L-glutamine (PSG; Life Technologies). The following day, virus was added at a multiplicity of infection (MOI) of 0.05 in the presence or absence of RPV dilutions in triplicate. Plates were incubated at 37°C for 48 h, and luciferase was measured using Britelite Plus reagent (PerkinElmer) on a Luminoskan Ascent microplate luminometer (Thermo Scientiﬁc). Relative light units (RLU) were converted to percent infection by dividing the RLU of each drug dilution by the RLU of the 100% infection control in the absence of drug. Wells containing cells with no virus and no drug were used to normalize for background luciferase output. The EC50 was calculated by log transforming drug concentrations and using a four-parameter variable-slope nonlinear regression for curve-ﬁtting analysis using PRISM 6 (GraphPad)."}, "[10]": {"system": "Y181C HIV-1NL4-BAL", "test": "Drug susceptibility assay in TZM-bl cells", "type": "cell-based", "conditions": "Fig. 1A", "procedure": "as §1"}, "[11]": {"system": "Y181V HIV-1CH185", "test": "Drug susceptibility assay in TZM-bl cells", "type": "cell-based", "conditions": "Fig. 9B", "procedure": "as §1"}, "[12]": {"system": "WT HIV-1NL4-BAL", "test": "Drug susceptibility assay in TZM-bl cells", "type": "cell-based", "conditions": "Human immunodeficiency virus 1, BAL", "procedure": "as §1"}, "[13]": {"system": "Y181V HIV-1NL4-BAL", "test": "Drug susceptibility assay in TZM-bl cells", "type": "cell-based", "procedure": "as §1"}, "[14]": {"type": "in vivo, female BLT mice", "conditions": "for genital tract tissue concentrations relative to what has been observed in women: single dose TFV 150 mg/kg, higher than in women (54)", "procedure": "For RPV LA, 14 mice were injected intramuscularly in the flank with 3 mg RPV LA, for a dose of approximately 150 mg/kg. Two mice were euthanized at 1, 3, 6, 12, 24, 48, and 168 h postinjection. For TFV/FTC, an additional 12 mice were injected intraperitoneally with 150 mg/kg TFV and 100 mg/kg FTC. Two mice were euthanized at 1, 3, 6, 12, 24, and 48 h postinjection. Blood was drawn at each time point until euthanasia, and plasma was separated. At necropsy, female genital tract and colon/rectum were collected, weighed, and immediately flash-frozen dry.\nRPV, TFV, and FTC were extracted from mouse plasma with isotopically labeled internal standards (RPV-d6; TFV-^13C5; and FTC-^13C, ^15N2, respectively) using protein precipitation. TFV and FTC were separated on a Waters Atlantis T3 (2.1 by 50 mm, 3 μm) high-performance liquid chromatography (HPLC) column and RPV on an Xterra MS C18 (2.1 by 50 mm, 3.5 μm) HPLC column. The calibrated ranges were 1 to 4,000 ng/ml (TFV and FTC) or 1 to 10,000 ng/ml (RPV). Calibration standards and quality control (QC) samples were prepared in blank plasma with an acceptance criteria of ±20%.\nFrozen tissue biopsy specimens were homogenized in 1 ml of cold 70:30 acetonitrile–1 mM ammonium phosphate (pH 7.4). RPV, TFV, FTC, TFVdp, and FTCtp were extracted from tissue homogenate with the following isotopically labeled internal standards: RPV-d6; TFV-^13C5; FTC-^13C, ^15N2; and TFVdp-^13C5 (for both TFVdp and FTCtp). For quantification, analytes and internal standards were separated on a Waters Atlantis T-3 C18 HPLC column (TFV and FTC), a ThermoBioBasic AX HPLC column (TFVdp and FTCtp), or an Xterra MS C18 (2.1 by 50 mm, 3.5 μm) HPLC column (RPV). The calibrated ranges were 0.300 to 300 ng/ml (TFV, FTC, TFVdp, and FTCtp) and 1 to 200 ng/ml (RPV). Resulting concentrations were normalized to tissue weight assuming a tissue density of 1 g/ml ([86]) and reported as nanograms or femtomole per gram. Calibration standards and QC samples were prepared in blank tissue homogenate with an acceptance criteria of ±20%."}, "[15]": {"system": "Y181I/V", "parameters": "method as in PMID 19933797", "conditions": "cited from earlier work"}},
  "note": "“And” between values parts separate entries of the source, which are not always exact repeats. Identical values can stand only once. Like-named read-outs stand apart in the source and are kept apart here.",
  "data": [
    {"smiles": "Cc1cc(/C=C/C#N)cc(C)c1Nc1ccnc(Nc2ccc(C#N)cc2)n1", "note": "[RPV, rilpivirine]", "values": [
      {"measurement": "inhibition of simian immunodeficiency virus (SIV)", "setting": "[1]", "result": "does not inhibit"},
      {"measurement": "protein binding", "setting": "[2]", "result": "highly protein bound"},
      {"measurement": "resistance conferred by Y181V", "setting": "[3]", "result": "approximately 20 fold"},
      {"measurement": "fold increase in EC50 (RPV resistance) vs WT HIV-1NL4-BAL", "setting": "[4]", "result": 23, "unit": "fold"},
      {"measurement": "protein-adjusted 90% effective concentration (EC90)", "setting": "[5]", "result": "0.012 µg/mL and 0.0121 µg/mL"},
      {"measurement": "EC90", "setting": "[5]; read-out: protein-adjusted EC90", "result": 33, "unit": "nM"},
      {"measurement": "resistance conferred by E138K", "setting": "[6]", "result": 2, "unit": "fold"},
      {"measurement": "metabolism in macaques", "setting": "[7]", "result": "rapidly metabolized"},
      {"measurement": "resistance conferred by Y181C", "setting": "[8]", "result": 3, "unit": "fold"},
      {"measurement": "EC50", "setting": "[9]", "result": "0.21 ± 0.003", "unit": "nM"},
      {"measurement": "fold increase in EC50 (RPV resistance) vs WT HIV-1NL4-BAL", "setting": "[10]", "result": 3, "unit": "fold"},
      {"measurement": "EC50", "setting": "[11]; Human immunodeficiency virus 1, TZM-bl cells", "result": "12 ± 1.5", "unit": "nM"},
      {"measurement": "fold change from the level for WT HIV-1NL4-BAL", "setting": "[11]; Y181V HIV-1CH185", "result": 36, "unit": "fold"},
      {"measurement": "EC50", "setting": "[12]; Fig. 1A, read-out: 50% effective concentration (EC50)", "result": "0.54 nM and 0.0002 µg/mL"},
      {"measurement": "EC50", "setting": "[12]; Fig. 9B, read-out: average EC50", "result": "0.34 ± 0.07", "unit": "nM"},
      {"measurement": "EC50", "setting": "[12]; RPV LA compared with soluble RPV, Fig. 2, read-out: EC50", "result": "0.6 nM and 0.00022 µg/mL"},
      {"measurement": "EC50", "setting": "[13]; Human immunodeficiency virus 1, BAL, TZM-bl cells, Fig. 9B", "result": "7.3 ± 1.3", "unit": "nM"},
      {"measurement": "fold change from the level for WT HIV-1NL4-BAL", "setting": "[13]; Y181V HIV-1NL4-BAL, Fig. 9B", "result": 21, "unit": "fold"},
      {"measurement": "fold increase in EC50 (RPV resistance) vs WT HIV-1NL4-BAL", "setting": "[13]; Y181V, TZM-bl cells, Fig. 1A", "result": 27, "unit": "fold"},
      {"measurement": "reduced susceptibility to RPV of virus encoding Y181V", "setting": "[13]; discussion", "result": "> 20", "unit": "fold"},
      {"measurement": "RPV resistance of Y181V HIV-1", "setting": "[13]; in the viruses used for this study (abstract)", "result": 30, "unit": "fold"}
    ]},
    {"smiles": "Nc1nc(=O)n([C@@H]2CS[C@H](COP(=O)(O)OP(=O)(O)OP(=O)(O)O)O2)cc1F", "note": "[FTCtp, FTC triphosphate]", "values": [
      {"measurement": "tissue FTC triphosphate (FTCtp) concentrations", "setting": "[14]; female genital tract, 12 h, 24 h, and 48 h postdose, single dose PK study", "result": "undetectable"}
    ]},
    {"smiles": "Cc1ccnc2c1NC(=O)c1cccnc1N2C1CC1", "note": "[nevirapine]", "values": [
      {"measurement": "resistance conferred by Y181I/V", "setting": "[15]", "result": "> 60", "unit": "fold"},
      {"measurement": "resistance conferred by Y181C", "setting": "[8]", "result": "> 40", "unit": "fold"}
    ]},
    {"smiles": "C[C@H](Cn1cnc2c(N)ncnc21)OCP(=O)(O)O", "note": "[TFV, tenofovir]", "values": [
      {"measurement": "genital tract tissue concentrations relative to what has been observed in women", "setting": "[14]", "result": "approximately 10 fold"}
    ]},
    {"smiles": "CC(Cn1cnc2c(N)ncnc21)OCP(=O)(O)OP(=O)(O)OP(=O)(O)O", "note": "(stereo in doubt) [TFVdp, TFV diphosphate]", "values": [
      {"measurement": "genital tract tissue concentrations relative to what has been observed in women", "setting": "[14]", "result": "approximately 10 fold"}
    ]}
  ]
}
